Results taken from patent US7112586B2, “Substituted diamine derivatives useful as motilin antagonists” (Ortho-McNeil Pharmaceutical, Inc., priority 2000, dated 2006).
pIC50: −log10 of the molar value.

The molecules below were run against T1, Motilin Receptor (Oryctolagus cuniculus, UniProt G1T803) (assay: Motilin receptor binding, rabbit colon membranes, 125I porcine motilin). Settings: rabbit colon membranes.
T1 construct: The muscle tissue was homogenized in 10 volumes of 50 mM Tris-Cl; from tissue; host or cells: rabbit colon smooth muscle, crude membrane homogenate
T1 sequence (G1T803 1-400): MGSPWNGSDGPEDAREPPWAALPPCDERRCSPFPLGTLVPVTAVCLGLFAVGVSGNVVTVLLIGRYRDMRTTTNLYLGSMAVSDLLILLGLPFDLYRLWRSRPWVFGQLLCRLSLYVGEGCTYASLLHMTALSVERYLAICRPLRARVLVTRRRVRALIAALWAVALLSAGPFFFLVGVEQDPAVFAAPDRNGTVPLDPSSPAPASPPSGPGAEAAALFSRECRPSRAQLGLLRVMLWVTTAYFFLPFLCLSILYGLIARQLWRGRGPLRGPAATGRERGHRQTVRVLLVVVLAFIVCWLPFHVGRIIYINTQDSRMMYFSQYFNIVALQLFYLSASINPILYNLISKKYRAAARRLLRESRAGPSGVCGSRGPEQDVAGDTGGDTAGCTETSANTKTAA
Set-up: Rabbit Colon % Inh / inhibition / % Inh (Rabbit colon): dose or concentration left out as unconfirmed
Protocol: Rabbit colon was removed, dissected free from the mucosa and serosa, and diced into small pieces. The muscle tissue was homogenized in 10 volumes of 50 mM Tris-Cl, 10 mM MgCl2, 0.1 mg/ml bacitracin, and 0.25 mM Peflabloc, at pH 7.5 in a Polytron (29000 rpm, 4×15 seconds). The homogenate was centrifuged at 1000×g for 15 minutes and the supernatant discarded. The pellet was washed twice before being suspended in homogenizing buffer. The crude homogenate was resuspended through a 23 gauge needle before storing at −80° C. […] After 60 minutes at 30° C., the samples were cooled in ice, centrifuged in the cold at 13000×g for 1 minute. The pellet was washed twice with 1 ml of cold saline, the supernatant was aspirated, and the pellet at the bottom of the tube counted in a gamma counter. Non-specific binding was determined by the inclusion of 1 mM of unlabeled motilin. IC50 values were determined from Kaleidograph curves.

| SMILES | Rabbit Colon % Inh [%] |
| --- | --- |
| COc1cccc(CN(C(=O)C(Cl)(Cl)Cl)C2CCCC(CN(C(=O)Nc3ccccc3)c3cccc(OCCN4CCOCC4)c3)C2)c1 (stereo not drawn) [compound 61] | 55 |
| O=C(Nc1ccccc1)N(CC1CCCC(N(Cc2cccc(Cl)c2Cl)C(=O)C(Cl)(Cl)Cl)C1)c1cccc(OCCN2CCOCC2)c1 (stereo not drawn) [compound 66] | 39 |
| O=C(Nc1ccccc1)NC1CCCC(CN(C(=O)Nc2ccccc2)c2cccc(OCCN3CCOCC3)c2)C1 (stereo not drawn) [compound 69] | 0 |
| O=C(NC1CCCC(CN(C(=O)Nc2ccccc2)c2cccc(OCCN3CCOCC3)c2)C1)c1ccco1 (stereo not drawn) [compound 70] | 0 |
| O=C(Nc1ccccc1)N(CC1CCCC(NS(=O)(=O)c2ccc3ccccc3c2)C1)c1cccc(OCCN2CCOCC2)c1 (stereo not drawn) [compound 71] | 43 |
| O=C(NC1CCCC(CN(C(=O)Nc2ccccc2)c2cccc(OCCN3CCOCC3)c2)C1)c1cc(C(F)(F)F)cc(C(F)(F)F)c1 (stereo not drawn) [compound 74] | 29 |
| O=C(NC1CCCC(CN(C(=O)Nc2ccccc2)c2cccc(OCCN3CCOCC3)c2)C1)c1ccc(-c2ccccc2)cc1 (stereo not drawn) [compound 75] | 19 |
| COc1cccc(C(=O)NC2CCCC(CN(C(=O)Nc3ccccc3)c3cccc(OCCN4CCOCC4)c3)C2)c1 (stereo not drawn) [compound 76] | 26 |
| CC(C)(C)C(=O)NC1CCCC(CN(C(=O)Nc2ccccc2)c2cccc(OCCN3CCOCC3)c2)C1 (stereo not drawn) [compound 77] | 19 |
| O=C(NC1CCCC(CN(C(=O)Nc2ccccc2)c2cccc(OCCN3CCOCC3)c2)C1)c1ccc2ccccc2c1 (stereo not drawn) [compound 79] | 39 |

More lines, now with the values ahead:

| Rabbit Colon % Inh [%] | SMILES |
| --- | --- |
| 48 | O=C(Nc1ccccc1)N(CC1CCCC(N(Cc2cccc(Cl)c2)C(=O)c2cccc([N+](=O)[O-])c2)C1)c1cccc(OCCN2CCOCC2)c1 (stereo not drawn) [compound 55] |
| 27 | O=C(Nc1ccccc1)N(CC1CCCC(N(Cc2cccc(Cl)c2)C(=O)C(c2ccccc2)c2ccccc2)C1)c1cccc(OCCN2CCOCC2)c1 (stereo not drawn) [compound 56] |
| 38 | O=C(Nc1ccccc1)N(CC1CCCC(N(Cc2cccc(F)c2)C(=O)C(Cl)(Cl)Cl)C1)c1cccc(OCCN2CCOCC2)c1 (stereo not drawn) [compound 58] |
| 23 | O=C(Nc1ccccc1)N(CC1CCCC(N(Cc2ccc(Cl)c(Cl)c2)C(=O)C(Cl)(Cl)Cl)C1)c1cccc(OCCN2CCOCC2)c1 (stereo not drawn) [compound 59] |
| 58 | O=C(Nc1ccccc1)N(CC1CCCC(N(Cc2cccc(C(F)(F)F)c2)C(=O)C(Cl)(Cl)Cl)C1)c1cccc(OCCN2CCOCC2)c1 (stereo not drawn) [compound 62] |
| 55 | O=C(Nc1ccccc1)N(CC1CCCC(N(Cc2ccc(Cl)cc2)C(=O)C(Cl)(Cl)Cl)C1)c1cccc(OCCN2CCOCC2)c1 (stereo not drawn) [compound 63] |
| 32 | O=C(Nc1ccccc1)N(CC1CCCC(N(Cc2cccc3ccccc23)C(=O)C(Cl)(Cl)Cl)C1)c1cccc(OCCN2CCOCC2)c1 (stereo not drawn) [compound 64] |
| 25 | O=C(Nc1ccccc1)N(CC1CCCC(NC(=O)C(F)(F)F)C1)c1cccc(OCCN2CCOCC2)c1 (stereo not drawn) [compound 73] |
| 10 | O=C(CCc1ccccc1)NC1CCCC(CN(C(=O)Nc2ccccc2)c2cccc(OCCN3CCOCC3)c2)C1 (stereo not drawn) [compound 78] |

Same assay, conditions: rabbit colon membranes; read-out: Rabbit Colon % Inh

| SMILES | inhibition [%] |
| --- | --- |
| O=C(Nc1ccccc1)N(CC1CCCC(N(Cc2cc(Cl)cc(Cl)c2)C(=O)C(Cl)(Cl)Cl)C1)c1cccc(OCCN2CCOCC2)c1 (stereo not drawn) [compound 60] | 65 |
| O=C(Nc1ccccc1)N(CC1CCCC(NC(=O)C(Cl)(Cl)Cl)C1)c1cccc(OCCN2CCOCC2)c1 (stereo not drawn) [compound 72] | 40 |

Continued, values first:

| inhibition [%] | SMILES |
| --- | --- |
| 15 | O=C(Nc1ccccc1)N(CC1CCCC(N(Cc2ccccc2)S(=O)(=O)c2ccc3ccccc3c2)C1)c1cccc(OCCN2CCOCC2)c1 (stereo not drawn) [compound 57] |
| 75 | O=C(Nc1ccccc1)N(CC1CCCC(N(Cc2ccccc2)C(=O)C(Cl)(Cl)Cl)C1)c1cccc(OCCN2CCOCC2)c1 (stereo not drawn) [compound 67] |
| 73 | O=C(Nc1ccccc1)N(CC1CCCC(N(Cc2ccccn2)C(=O)C(Cl)(Cl)Cl)C1)c1cccc(OCCN2CCOCC2)c1 (stereo not drawn) [compound 68] |

Same assay, conditions: rabbit colon membranes; read-out: Rabbit Colon IC50

| pIC50 | SMILES |
| --- | --- |
| 6.18 | O=C(Nc1ccccc1)N(CC1CCCC(N(Cc2cc(Cl)cc(Cl)c2)C(=O)C(Cl)(Cl)Cl)C1)c1cccc(OCCN2CCOCC2)c1 (stereo not drawn) [compound 60] |
| 6.02 | O=C(Nc1ccccc1)N(CC1CCCC(N(Cc2ccccc2)C(=O)C(Cl)(Cl)Cl)C1)c1cccc(OCCN2CCOCC2)c1 (stereo not drawn) [compound 67] |
| 6.18 | O=C(Nc1ccccc1)N(CC1CCCC(N(Cc2ccccn2)C(=O)C(Cl)(Cl)Cl)C1)c1cccc(OCCN2CCOCC2)c1 (stereo not drawn) [compound 68] |
